Measured values reported in patent US20030073218A1, “High affinity inhibitors for target validation and uses thereof” (Princeton University, priority 1999, published 2003).
Entries after “also recorded” stand apart in the source; their conditions may differ. Where two headings read alike, the source gives them in different places. Each block holds one compound with its values, some of them ahead of it.

How the values were obtained:
Cdc28-as1 · MBP-Clb2 = target: T1, Cdc28-as1 · MBP-Clb2 (Saccharomyces cerevisiae, UniProt P00546, F88G); assay type: biochemical
T1 construct: made in house; host or cells: Sf9 insect cells, baculovirus, co-infected with Cak1-HA3 (Cdc28-as1-His6); bacteria (MBP-Clb2)
T1 sequence (P00546 whole entry F88G): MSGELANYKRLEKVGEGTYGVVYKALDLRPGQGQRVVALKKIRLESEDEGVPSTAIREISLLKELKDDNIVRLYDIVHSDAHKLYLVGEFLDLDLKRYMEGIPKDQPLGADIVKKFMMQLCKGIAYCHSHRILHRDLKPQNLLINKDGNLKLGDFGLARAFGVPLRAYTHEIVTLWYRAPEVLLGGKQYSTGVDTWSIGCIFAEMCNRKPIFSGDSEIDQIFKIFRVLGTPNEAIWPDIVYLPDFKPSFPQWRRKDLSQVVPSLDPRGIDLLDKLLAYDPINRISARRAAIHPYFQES
T1 sequence (P24869 whole entry, further chain): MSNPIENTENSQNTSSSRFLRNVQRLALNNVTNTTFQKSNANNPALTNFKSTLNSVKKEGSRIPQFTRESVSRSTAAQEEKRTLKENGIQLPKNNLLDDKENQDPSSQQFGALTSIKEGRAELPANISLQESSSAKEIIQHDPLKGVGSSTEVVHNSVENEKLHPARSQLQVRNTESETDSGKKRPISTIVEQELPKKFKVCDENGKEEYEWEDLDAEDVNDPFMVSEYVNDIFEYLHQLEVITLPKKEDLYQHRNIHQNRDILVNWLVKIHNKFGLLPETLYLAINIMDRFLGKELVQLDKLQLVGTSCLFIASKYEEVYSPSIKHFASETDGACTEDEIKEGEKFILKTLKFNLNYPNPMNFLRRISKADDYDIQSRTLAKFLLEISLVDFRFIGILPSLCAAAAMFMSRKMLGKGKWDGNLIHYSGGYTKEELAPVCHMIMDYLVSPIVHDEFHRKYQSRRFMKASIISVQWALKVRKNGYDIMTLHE

GST-XD4 [1] = target: T2, GST-XD4 (Rous sarcoma virus subgroup A, UniProt P00524, DEL77-225); conditions: read-out: KM for protein substrate RR-Src at saturated nucleotide
GST-XD4 [2] = target: T2, GST-XD4; experiment: biochemical; assay type: biochemical; set-up: mutant of the v-Src catalytic domain, (the XD4 fragment) were made as glutathione S-transferase (GST) fusion proteins; made in house; host or cells: E. coli (DH5a), pGEX-KT
Protocol: (§1) Kinetic constants were determined by analysis of Lineweaver-Burk plots of the rate data (64).

I338G v-Src = target: T3, I338G v-Src (Rous sarcoma virus subgroup A, UniProt P00524, DEL77-225/I338G); experiment: biochemical; assay type: biochemical
T3 construct: screened against the catalytic domain of the target kinase, I338G v-Src; made in house; host or cells: E. coli DH5a, pGEX-KT

PKCd = target: T4, PKCd (Homo sapiens, UniProt Q05655); experiment: In Vitro Kinase Inhibition Assay; assay type: biochemical; conditions: at concentrations up to 300 mM
T4 construct: 6-His; made in house; host or cells: Bac-to-Bac baculovirus expression system (pFastBac B vector)
T4 sequence (Q05655 whole entry, species assumed): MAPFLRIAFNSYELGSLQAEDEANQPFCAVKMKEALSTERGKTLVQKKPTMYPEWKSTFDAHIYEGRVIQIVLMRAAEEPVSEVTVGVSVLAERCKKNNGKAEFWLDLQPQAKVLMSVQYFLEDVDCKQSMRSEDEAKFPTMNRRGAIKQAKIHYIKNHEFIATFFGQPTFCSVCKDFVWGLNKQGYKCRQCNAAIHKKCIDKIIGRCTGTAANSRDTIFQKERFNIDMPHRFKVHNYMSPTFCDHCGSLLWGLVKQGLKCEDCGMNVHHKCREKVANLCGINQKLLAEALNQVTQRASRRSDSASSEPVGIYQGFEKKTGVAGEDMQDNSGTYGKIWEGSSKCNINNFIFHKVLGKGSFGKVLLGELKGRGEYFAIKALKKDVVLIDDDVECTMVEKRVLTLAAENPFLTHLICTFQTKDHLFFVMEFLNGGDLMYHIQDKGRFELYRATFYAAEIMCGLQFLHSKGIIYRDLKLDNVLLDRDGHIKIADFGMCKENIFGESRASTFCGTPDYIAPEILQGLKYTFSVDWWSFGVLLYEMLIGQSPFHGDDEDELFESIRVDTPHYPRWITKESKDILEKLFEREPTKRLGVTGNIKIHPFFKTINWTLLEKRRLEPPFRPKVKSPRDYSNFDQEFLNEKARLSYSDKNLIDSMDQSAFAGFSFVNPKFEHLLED

PKA = target: T5, PKA (Homo sapiens, UniProt P17612); experiment: In Vitro Kinase Inhibition Assay; assay type: biochemical; conditions: at concentrations up to 300 mM
T5 construct: purchased Pierce
Source text: PKA was purchased (Pierce) and used without further purification.

[3] = system: B cell receptor (BCR) mediated phosphorylation cascade in murine B cells; experiment: Murine B Cell Assay (phosphotyrosine blot after anti-IgM stimulation); assay type: cell-based; set-up: dose or concentration left out as unconfirmed; conditions: 30 minutes, anti-IgM cross linked murine B cells
Protocol: Murine B Cell Assay: Splenic lymphocytes were isolated from 6-20 week old Balb/c or C57/B6 mice. The cells were washed out of the spleen into RPMI media containing 1 mg/mL DNase in and the red blood cells were lysed in 17 mM tris-ammonium chloride, pH 7.2, Approximately 4×10^6 cells were incubated at 37° C. for 30 minutes with […] of 3 g or 2 in 1.1% DMSO. B cell stimulation was initiated by the addition of 2 mg of goat anti-mouse IgM (Jackson Immuno Research, cat# 115-005-075) and subsequent incubation for 5 minutes at 37(C. The cells were isolated by centrifugation (13,000 rpm, 2 min) and lysed (lysis buffer: 1% Triton X-100, 50 mM tris pH 7.4, 2 mM EDTA, 150 mM NaCl, […] PMSF, 2 mM sodium orthovanadate, 10 mg/mL leupeptin, 10 mg/mL apoprotin). The cellular debris was then pelleted at 13,000 rpm for 15 min. Cellular proteins were separated by 10% polyacrylamide gel electrophoresis and transferred to a nitrocellulose membrane by Western blotting. Phosphotyrosine containing proteins were visualized by immunoblotting with anti-phosphotyrosine antibody (Upstate Biotechnology, Inc.).

[4] = system: WT v-Src transformed NIH3T3 cells; experiment: Inhibition of v-Src in NIH3T3 fibroblasts (phosphotyrosine blot); assay type: cell-based, murine; conditions: 100 mM 3g, 12 hours
Protocol: Tyrosine phosphorylated proteins were visualized as in FIG. 20A.
Retroviral Infection of NIH 3T3 Fibroblasts: Genes encoding WT and I338G v-Src were transfected into a packaging cell line and NIH 3T3 fibroblasts were retrovirally infected using the pBabe retroviral vector and a puromycin ([…]) selectable marker as described (Shah, K., Liu, Y., Shokat, K. M., in preparation). WT and I338G v-Src transformed cells were cultured in DMEM/10% BCS containing […] puromycin).
After 12 hours, the cells were washed with PBS and lysed (lysis buffer: 1% Triton X-100, 50 mM tris pH 7.4, 2 mM EDTA, 150 mM NaCl, […], 2 mM sodium orthovanadate, 10 mg/mL leupeptin, 10 mg/mL apoprotin). The lysate was clarified by centrifugation at 13,000 rpm for 15 min. Lysate protein concentrations were normalized and equal volumes of the lysate were resolved electrophoretically and analyzed for phosphotyrosine content as described above.

[5] = system: I338G v-Src transformed NIH3T3 fibroblasts; experiment: Microscopy of cell morphology and polymerized actin; assay type: cell-based, murine; conditions: 100 mM 3g, 48 hours
Protocol: FIG. 21A show non-transformed NIH3T3 cells.
Microscopy: Non-transformed, WT v-Src transformed, and 1338G v-Src transformed NIH3T3 fibroblasts were grown in DMEM/10% BCS on tissue culture treated slides. V-Src expressing cells were treated with either 1.1% DMSO or […] 3g in 1.1% DMSO. After 48 hours cells were photographed at 400(magnification on an Nikon TMS light microscope. Immediately following light microscopy, the cells were fixed for 20 min in 3.7% formaldehyde/PBS and permeabilized for 60 sec in 0.2% Triton X-100(/PBS. Permeabilized cells were incubated with 200 ng/mL phalloidin-FITC/PBS for 20 min. Slides were rinsed with PBS and polymerized actin was visualized by fluorescence microscopy at 600( magnification on a Zeiss fluorescence microscope.

[6] = system: protein tyrosine kinase in murine lymphocyte cell lysate (CF); experiment: Screening of ATP analogs as kinase substrates in murine lymphocyte lysate (anti-phosphotyrosine immunoblot); assay type: biochemical; conditions: 100 uM nucleotide triphosphate, 37° C., 5 min
Protocol: Screening of Nucleotide Analogs: To identify compounds that would not be accepted as substrates by any existing cellular kinase (53), a panel of synthetic A*TP analogs were screened in a murine lymphocyte lysate (CF) rich in protein tyrosine kinase (13). The assays were performed using spleenocytes (8-30 week old male and female C57/B6 mice from the Princeton University Animal Facility) which were isolated and washed in RPMI-1640 medium containing 5% Bovine Calf Serum (BCS), 1% Hepes and DNAseI (1 μg/ml). Red cells were lysed at 4° C. by treatment with 17 mM tris ammonium chloride pH 7.2. The cells were hypotonically lysed on ice for 10 min. In 1 mM Hepes pH 7.4, 5 mM MgCl2, leupeptin (10 μg/ml), aprotinin (10 μg/ml) and 100 uM PMSF according to the method of Fukazawa et. al. (51). After vortexing and centrifuigation at 500 xg, the supernatant was collected. Cells were stored at 4° C. for 20 min. To attenuate the basal protein phosphorylation level, after which the buffer was adjusted to 20 mM Hepes pH 7.4, 10 mM MgCl2 and 1 mM NaF. Sodium vanadate (100 uM) was then added to inhibit the activity of phosphotyrosine phosphatases.
Each nucleotide triphosphate was added to a final concentration of 100 uM to 5×10^6 cell equivalents and incubated at 37° C. for 5 min. after which 4X Laemmli gel loading buffer was added to the cell lysate to quench the reaction. Proteins were separated by 12.5% SDS-PAGE and transferred to Protran BA85 (Schleicher-Schuell). The blot was probed with the anti-phosphotyrosine monoclonal antibody 4G10 (Upstate Biotechnology) and the bound antibody was detected via enhanced chemiluminescence (cat. 34080, Pierce) following treatment with HRP- coupled goat-anti-mouse antibody (VWR cat. 7101332) according to the manufacturer's instructions.
The cell lysate used includes the protein tyrosine kinase Src, Fyn, Lck, Lyn, Yes, Fgr, Hck, Zap, Syk, Btk, Blk, and other protein tyrosine kinase present in B and T lymphocytes, macrophages, and follicular dendritic cells (13). Molecular size standards (in kilodaltons) are indicated.

GST-XD4(V323A, I338A) [7] = target: T6, GST-XD4(V323A, I338A) (Rous sarcoma virus subgroup A, UniProt P00524, DEL77-225/I338A/V323A); assay type: biochemical
T6 construct: mutant of the v-Src catalytic domain, (the XD4 fragment) were made as glutathione S-transferase (GST) fusion proteins; made in house; host or cells: E. coli (DH5a), pGEX-KT
Protocol: as §1

GST-XD4(V323A, I338A) [8] = target: T6, GST-XD4(V323A, I338A); experiment: Autophosphorylation with radiolabeled nucleotide (autoradiogram); assay type: biochemical; conditions: FIG. 5C lane 4
Source text: (§2) It is even more significant that the new substrate, [γ-^32P] […] FIG. 5C is an autoradiogram showing [γ-^32P]

[9] = system: wild-type cellular kinase in murine lymphocyte lysates; experiment: In vitro kinase reactions with radiolabeled nucleotide in murine lymphocyte lysates; assay type: biochemical; conditions: 100 μM radiolabeled nucleotide, 37° C., 10 min
Protocol: For this it is preferably that no wild-type kinase, including ser/thr specific kinase (which carry out the bulk of cellular phosphorylation, as only 0.03% of all phosphoamino acids are tyrosine) (65), substantially accept the synthetic substrate. To establish that [γ-^32P]
These assays were performed in a manner similar to the procedure set forth in Example 2, with the exception of the use of radiolabeled [γ-^32P] […] Proteins were separate by 12.5% SDS-PAGE. The gel was soaked in 10% acetic acid, 10% isopropanol for 1 h. after which it was dried in a gel dryer and exposed to Biomax MS film (Kodak # 111-1681) for 1 h.

GST-XD4(V323A, I338A) [10] = conditions: 100 μM analog, 10 μM [γ-32P] ATP
GST-XD4 [11] = target: T2, GST-XD4; experiment: Autophosphorylation with radiolabeled nucleotide (autoradiogram); assay type: biochemical; set-up: mutant of the v-Src catalytic domain, (the XD4 fragment) were made as glutathione S-transferase (GST) fusion proteins; made in house; host or cells: E. coli (DH5a), pGEX-KT; conditions: GST-XD4, FIG. 5C lane 3
Source text: as §2

wild-type Fyn = wild-type Fyn (Homo sapiens, UniProt P06241); experiment: Peptide phosphorylation assay, screening of inhibitors orthogonal to wild-type kinases; assay type: biochemical; conditions: read-out: IC50 for inhibition of wild-type Fyn
Sequence of wild-type Fyn (P06241 1-534 isoform P06241-2, species assumed): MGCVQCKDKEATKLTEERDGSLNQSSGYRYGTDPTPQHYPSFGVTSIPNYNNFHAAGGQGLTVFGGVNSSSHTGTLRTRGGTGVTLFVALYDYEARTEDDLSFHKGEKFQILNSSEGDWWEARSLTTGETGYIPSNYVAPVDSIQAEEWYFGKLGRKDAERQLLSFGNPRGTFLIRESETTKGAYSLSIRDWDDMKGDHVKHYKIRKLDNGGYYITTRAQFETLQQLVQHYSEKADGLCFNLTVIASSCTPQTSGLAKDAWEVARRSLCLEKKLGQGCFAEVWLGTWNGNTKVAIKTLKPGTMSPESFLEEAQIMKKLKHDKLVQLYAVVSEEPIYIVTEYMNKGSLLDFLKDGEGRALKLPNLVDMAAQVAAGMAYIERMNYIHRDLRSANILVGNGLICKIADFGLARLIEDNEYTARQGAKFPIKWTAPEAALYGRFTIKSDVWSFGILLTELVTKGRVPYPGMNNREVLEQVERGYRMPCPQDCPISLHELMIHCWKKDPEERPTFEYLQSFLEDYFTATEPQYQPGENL
Source text: Screening of inhibitors which are orthogonal to wild-type kinases: To identify compounds that would not inhibit any existing cellular kinases, the panel of synthetic pyrazolo pyrimidine analogs (1-6) (FIG. 10) were screened against two closely related purified protein tyrosine kinases, v-Src and Fyn, in a peptide phosphorylation assay using [γ-^32P]

[12] = GST-XD4, 1 mM RR-Src, 37° C., pH 8.0

SMILES: Nc1ncnc2c1ncn2[C@@H]1O[C@H](COP(=O)(O)OP(=O)(O)OP(=O)(O)O)[C@@H](O)[C@H]1O [ATP, adenosine triphosphate]
reduction in binding affinity for ATP relative to wild-type Cdc28 (Cdc28-as1 · MBP-Clb2): 10 fold | reduction in maximum ATP turnover rate relative to wild-type Cdc28 (Cdc28-as1 · MBP-Clb2): 6 fold | Km (GST-XD4 [1]): 2600 ± 900 µM | Km (GST-XD4 [2]; [12]): 12 ± 3 µM | kcat (GST-XD4 [2]; [12]): 0.033 ± 0.0083 s⁻¹

SMILES: CC(C)(C)c1ccc(C(=O)Nc2ncnc3c2c(-c2ccccc2)nn3C(C)(C)C)cc1 [Compound 3g, 4-(p-tert-butyl)benzamido-1-tert-butyl-3-phenylpyrazolo[3,4-d]pyrimidine]
mode of inhibition of I338G v-Src (I338G v-Src; Lineweaver-Burk analysis): competitively with respect to ATP | Ki (I338G v-Src; Lineweaver-Burk analysis at various ATP concentrations, read-out: inhibitory constant (Ki), I338G v-Src): ~0.4 µM | inhibition of PKCd (PKCd): not detectably inhibited | inhibition of PKA (PKA): not detectably inhibited | phosphotyrosine pattern of B cell stimulation [3]: no effect on the phosphotyrosine pattern of B cell stimulation | tyrosine phosphorylation [4]: but not WT v-Src transformed NIH3T3 fibroblasts; also recorded: causes no loss of tyrosine phosphorylation | cell morphology and polymerized actin [5]: appeared flat and did not exhibit growth characteristics of transformed cells; also recorded: have defined polymerized actin strings

SMILES: O=P(O)(O)OP(=O)(O)OP(=O)(O)OC[C@H]1O[C@@H](n2cnc3c(NC4CCCC4)ncnc32)[C@H](O)[C@@H]1O [ATP analog 8, N^6(cyclopentyl)ATP]
ability to serve as cellular protein tyrosine kinase substrate (level of protein tyrosine phosphorylation) [6]: slightly lower level of phosphorylation with wild-type kinase | phosphorylation of RR-Src peptide with the nucleotide as phosphate donor (GST-XD4(V323A, I338A) [7]): displayed Michaelis-Menten kinetics | use as phosphodonor for autophosphorylation (GST-XD4(V323A, I338A) [8]): efficiently autophosphorylated | radiolabeled phosphoproteins in cell lysate [9]: no radiolabeled phosphoproteins in the cell lysate | inhibition of GST-XD4(V323A, I338A) catalyzed RR-Src phosphorylation (GST-XD4(V323A, I338A) [10]): almost as well as the wild-type kinase, GST-XD4, is inhibited by its natural substrate ATP | Ki (GST-XD4 [2]): 2000 µM | phosphorylation of RR-Src peptide with the nucleotide as phosphate donor (GST-XD4 [2]; wild-type GST-XD4): did not substantially phosphorylate the RR-Src peptiide | use as phosphodonor for autophosphorylation (GST-XD4 [11]): apparent complete inability of GST-XD4 to use this analog as a phosphodonor for autophosphorylation

IC50 (wild-type Fyn): > 400 µM
SMILES: CC(C)(C)n1nc(-c2ccccc2)c2c(NC(=O)c3ccccc3)ncnc21 [Compound 3e, 4-benzamido-1-tert-butyl-3-phenylpyrazolo[3,4-d]pyrimidine]
